Test results as given in patent US9676751B2, “2-amino-3-ester-pyridl orexin receptor antagonists” (MERCK SHARP & DOHME CORP., priority 2013, dated 2017).

Key:
human orexin-2 receptor = biological target: T1, human orexin-2 receptor (Homo sapiens, UniProt O43614); experiment: FLIPR Ca2+ Flux Assay, CHO cells expressing the human orexin-2 receptor; assay type: cell-based; conditions: agonist 70 pM Ala-6,12 orexin-A, read-out: hOX2R FLIPR IC50
T1 construct: expressed in transfected cells; host or cells: CHO cells
T1 sequence (O43614 1-444): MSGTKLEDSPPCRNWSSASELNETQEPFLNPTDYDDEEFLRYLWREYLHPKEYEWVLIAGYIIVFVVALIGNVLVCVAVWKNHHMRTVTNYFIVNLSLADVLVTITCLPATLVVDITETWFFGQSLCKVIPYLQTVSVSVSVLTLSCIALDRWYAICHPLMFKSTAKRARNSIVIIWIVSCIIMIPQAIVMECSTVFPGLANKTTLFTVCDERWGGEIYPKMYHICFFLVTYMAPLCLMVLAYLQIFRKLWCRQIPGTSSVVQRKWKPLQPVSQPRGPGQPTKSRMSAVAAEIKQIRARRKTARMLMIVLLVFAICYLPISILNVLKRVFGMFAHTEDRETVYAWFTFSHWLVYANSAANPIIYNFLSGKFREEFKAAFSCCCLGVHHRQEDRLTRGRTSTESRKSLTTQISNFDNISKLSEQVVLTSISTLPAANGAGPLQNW
Description: The utility of the compounds in accordance with the present invention as orexin receptor OX1R and/or OX2R antagonists may be readily determined without undue experimentation by methodology well known in the art, including the “FLIPR Ca^2+ Flux Assay” (Okumura et al., Biochem. Biophys. Res. Comm. 280:976-981, 2001). In a typical experiment the OX1 and OX2 receptor antagonistic activity of the compounds of the present invention was determined in accordance with the following experimental method. For intracellular calcium measurements, Chinese hamster ovary (CHO) cells expressing the rat orexin-1 receptor or the human orexin-2 receptor, are grown in Iscove's modified DMEM containing 2 mM L-glutamine, […], 1% hypoxanthine-thymidine supplement, 100 U/ml penicillin, 100 μg/ml streptomycin and 10% heat-inactivated fetal calf serum (FCS). The cells are seeded at 20,000 cells/well into Becton-Dickinson black 384-well clear bottom sterile plates coated with poly-D-lysine. All reagents were from GIBCO-Invitrogen Corp. The seeded plates are incubated overnight at 37° C. and 5% CO2. Ala-6,12 human orexin-A as the agonist is prepared as a 1 mM stock solution in 1% bovine serum albumin (BSA) and diluted in assay buffer (HBSS containing 20 mM HEPES, 0.1% BSA and 2.5 mM probenecid, pH7.4) for use in the assay at a final concentration of 70 pM. Test compounds are prepared as 10 mM stock solution in DMSO, then diluted in 384-well plates, first in DMSO, then assay buffer. On the day of the assay, cells are washed 3 times with 100 μl assay buffer and then incubated for 60 min (37° C., 5% CO2) in 60 μl assay buffer containing 1 μM Fluo-4AM ester, 0.02% pluronic acid, and 1% BSA. The dye loading solution is then aspirated and cells are washed 3 times with 100 μl assay buffer. 30 μl of that same buffer is left in each well. Within the Fluorescent Imaging Plate Reader (FLIPR, Molecular Devices), test compounds are added to the plate in a volume of 25 μl, incubated for 5 min and finally 25 μl of agonist is added. Fluorescence is measured for each well at 1 second intervals for 5 minutes and the height of each fluorescence peak is compared to the height of the fluorescence peak induced by 70 pM Ala-6,12 orexin-A with buffer in place of antagonist. For each antagonist, IC50 value (the concentration of compound needed to inhibit 50% of the agonist response) is determined. Alternatively, compound potency can be assessed by a radioligand binding assay (described in Bergman et. al. Bioorg. Med. Chem. Lett. 2008, 18, 1425-1430) in which the inhibition constant (Ki) is determined in membranes prepared from CHO cells expressing either the OX1 or OX2 receptor. The intrinsic orexin receptor antagonist activity of a compound which may be used in the present invention may be determined by these assays.

hOX1R = biological target: T2, hOX1R (Homo sapiens, UniProt O43613); experiment: FLIPR Ca2+ Flux Assay, CHO cells expressing the orexin-1 receptor; assay type: cell-based; conditions: agonist 70 pM Ala-6,12 orexin-A
T2 construct: expressed in transfected cells; host or cells: CHO cells
T2 sequence (O43613 1-425): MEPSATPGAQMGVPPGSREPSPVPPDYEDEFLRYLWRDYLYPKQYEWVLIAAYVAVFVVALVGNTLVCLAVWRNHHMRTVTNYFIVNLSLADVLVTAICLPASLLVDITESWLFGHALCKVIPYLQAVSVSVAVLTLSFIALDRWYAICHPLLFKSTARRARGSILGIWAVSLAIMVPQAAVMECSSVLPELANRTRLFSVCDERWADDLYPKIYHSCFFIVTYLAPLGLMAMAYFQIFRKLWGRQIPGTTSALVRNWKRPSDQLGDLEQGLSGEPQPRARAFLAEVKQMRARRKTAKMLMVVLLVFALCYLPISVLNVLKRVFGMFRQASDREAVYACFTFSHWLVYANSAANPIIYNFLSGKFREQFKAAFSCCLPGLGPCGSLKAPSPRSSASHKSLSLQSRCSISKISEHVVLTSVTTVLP

IC50 (human orexin-2 receptor) | IC50 (hOX1R) | Structure (SMILES)
24 nM | 43 nM | COC(=O)c1c(C#N)ccnc1N[C@@H]1CC[C@@H](C)N(C(=O)c2ccccc2-n2nccn2)C1 [Example 19, Methyl 4-cyano-2-{[(3R,6R)-6-methyl-1-{[2-(2H-1,2,3-triazol-2-yl)phenyl]carbonyl}-piperidin-3-yl]amino}pyridine-3-carboxylate]
48 nM | 86 nM | COC(=O)c1c(C#N)ccnc1N[C@@H]1CC[C@@H](C)N(C(=O)c2ccccc2-c2ncccn2)C1 [Example 20, Methyl 4-cyano-2-({(3R,6R)-6-methyl-1-[(2-pyrimidin-2-ylphenyl)carbonyl]piperidin-3-yl}amino)pyridine-3-carboxylate]
